Data from US9458141B2, “Low molecular weight thyroid stimulating hormone receptor (TSHR) agonists” (The United States of America, as represented by the …, priority 2008, dated 2016).
Like-named read-outs stand apart in the source and are kept apart here.

Molecular target: T1, human TSHR (Homo sapiens, UniProt P16473)
T1 construct: expressed in transfected cells
Test: Homogeneous Time Resolved Fluorescence (HTRF) cAMP assay, TSHR cell line
Type: cell-based
Conditions: for AC50: HTRF cAMP, TSHR cell line, 30 minute incubation; for Maximum Activity compared to TSH: 100% activity = response of 30 mU/ml TSH, 0% = DMSO control, in %; for Emax: read-out: Maximum Activity compared to TSH, 100% activity = response of 30 mU/ml TSH, 0% = DMSO control; call rule not given here

T1 sequence (P16473 21-764): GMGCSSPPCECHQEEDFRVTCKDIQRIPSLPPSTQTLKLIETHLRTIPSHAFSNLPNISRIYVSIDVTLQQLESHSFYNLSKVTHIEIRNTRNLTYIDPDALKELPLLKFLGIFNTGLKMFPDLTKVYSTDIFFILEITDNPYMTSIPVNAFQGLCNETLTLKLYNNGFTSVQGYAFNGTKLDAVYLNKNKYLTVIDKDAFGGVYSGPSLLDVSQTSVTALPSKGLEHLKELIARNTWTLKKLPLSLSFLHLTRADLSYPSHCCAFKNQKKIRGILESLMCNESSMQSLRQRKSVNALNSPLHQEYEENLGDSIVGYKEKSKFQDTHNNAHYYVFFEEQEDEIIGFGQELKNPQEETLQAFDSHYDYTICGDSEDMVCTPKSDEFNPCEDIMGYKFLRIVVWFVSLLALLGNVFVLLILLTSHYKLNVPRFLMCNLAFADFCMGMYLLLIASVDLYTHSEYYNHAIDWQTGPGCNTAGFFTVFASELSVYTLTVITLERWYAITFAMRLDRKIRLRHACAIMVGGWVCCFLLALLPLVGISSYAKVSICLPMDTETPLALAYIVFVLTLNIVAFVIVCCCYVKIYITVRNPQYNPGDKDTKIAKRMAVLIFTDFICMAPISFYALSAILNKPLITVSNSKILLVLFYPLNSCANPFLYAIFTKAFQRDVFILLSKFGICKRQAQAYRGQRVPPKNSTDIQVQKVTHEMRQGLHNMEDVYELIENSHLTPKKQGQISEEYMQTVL

| SMILES | AC50 | other results |
| --- | --- | --- |
| COc1ccc(C(=O)O)cc1COc1ccc(NC(C)=O)cc1 [Structure 202] | inactive | – |
| COc1ccc(C(=O)C2C(=O)C(=O)N(Cc3ccco3)C2c2cccs2)cc1 (stereo not shown) [Structure 205] | inactive | – |
| COc1ccc(-c2nc3ccc(Cl)cc3c(=O)n2Cc2ccccc2)cc1COc1ccc(NC(C)=O)cc1 [Structure 206] | inactive | – |
| COc1ccc(C2Nc3ccccc3C(=O)N2Cc2ccco2)cc1COc1ccccc1 (stereo not shown) [Structure 207] | inactive | – |
| COc1ccc(C2Nc3ccccc3C(=O)N2Cc2ccccc2)cc1COc1cccc(C(F)(F)F)c1 (stereo not shown) [Structure 208] | inactive | – |
| COc1ccc(C2Nc3ccccc3C(=O)N2CCO)cc1COc1ccc(NC(C)=O)cc1 (stereo not shown) [Structure 209] | inactive | – |
| COc1ccc(O)c(-c2nc3ccccc3c(=O)n2Cc2ccccc2)c1 [Structure 211] | inactive | – |
| O=C1CC(c2ccco2)CC2=C1C(c1ccc(O)cc1)n1nc(C(F)(F)F)nc1N2 (stereo not shown) [Structure 213] | inactive | – |
| COc1ccc(C2Nc3ccccc3C(=O)N2Cc2ccc(C(C)(C)C)cc2)cc1COc1ccc(NC(C)=O)cc1 (stereo not shown) [Structure 214] | inactive | – |
| COc1ccc(CN(Cc2ccccc2)C(=O)Nc2ccccc2)cc1COc1ccc(NC(C)=O)cc1 [Structure 215] | – | Maximum Activity compared to TSH: 20.00 |
| COc1ccc(O)c(C2Nc3ccccc3C(=O)N2Cc2ccccc2)c1 (stereo not shown) [Structure 216] | inactive | – |
| COc1ccc2c(c1OC)C(=O)N1c3ccccc3C(=O)N(Cc3ccco3)C21 (stereo not shown) [Structure 217] | inactive | – |
| COc1ccc(-c2nc3cccc(OC)c3c(=O)n2Cc2ccccc2)cc1COc1ccc(NC(C)=O)cc1 [Structure 218] | – | AC50 (read-out: AC50): 39.8 µM; Emax: 38% |
| O=C(c1ccccc1O)N(Cc1ccco1)Cc1ccco1 [Structure 219] | inactive | – |
| COc1ccc(CN(Cc2ccccc2)C(=O)c2ccccc2O)cc1COc1ccc(NC(C)=O)cc1 [Structure 220] | – | Maximum Activity compared to TSH: 32.00; AC50 (read-out: AC50): 17.8 µM |
| COc1ccc(C2Nc3ccccc3C(=O)N2CCO)cc1COc1ccc(NC(C)=O)cc1 (stereo not shown) [Structure 221] | inactive | – |
| COc1ccc(CN(Cc2ccccc2)[S+](=O)([O-])c2ccccc2)cc1COc1ccc(NC(C)=O)cc1 [Structure 223] | inactive | – |
| COc1ccc(C2Nc3ccccc3C(=O)N2CCc2ccc(Cl)cc2Cl)cc1COc1ccc(NC(C)=O)cc1 (stereo not shown) [Structure 224] | inactive | – |
| COc1ccc(C2Nc3ccccc3C(=O)N2CCc2ccc(Cl)cc2Cl)cc1COc1ccc(NC(C)=O)cc1 (stereo not shown) [Structure 225] | inactive | – |
| COc1ccc(C2Nc3ccccc3C(=O)N2Cc2ccccc2)cc1COc1ccc(NC(C)=O)cc1 (stereo not shown) [Structure 227] | inactive | – |
| COc1ccc(C2Nc3ccccc3C(=O)N2Cc2ccccc2)cc1OCc1ccc(NC(C)=O)cc1 (stereo not shown) [Structure 228] | inactive | – |
| COc1ccc(C2Nc3ccccc3C(=O)N2Cc2ccccc2)cc1COc1ccccc1OC (stereo not shown) [Structure 229] | – | AC50 (read-out: AC50): 8.91 µM; Emax: 23.5% |

| SMILES | AC50 | other results |
| --- | --- | --- |
| COc1cc(C2Nc3ccccc3C(=O)N2Cc2ccccc2)ccc1OCc1ccc(NC(C)=O)cc1 (stereo not shown) [Structure 230] | inactive | – |
| COc1ccc(C2Nc3ccccc3C(=O)N2Cc2ccccc2Cl)cc1COc1ccc(NC(C)=O)cc1 (stereo not shown) [Structure 231] | – | AC50 (read-out: AC50): 3.55 µM; Emax: 16% |
| COc1ccc(C2Nc3ccccc3C(=O)N2Cc2ccccc2)cc1COc1ccc(C)cc1 (stereo not shown) [Structure 232] | inactive | – |
| COc1ccc(C2NC(=O)c3ccccc3N2)cc1COc1ccc(NC(C)=O)cc1 (stereo not shown) [Structure 233] | inactive | – |
| COc1ccc(C2Nc3ccccc3C(=O)N2Cc2ccc(C(F)(F)F)cc2)cc1COc1ccc(NC(C)=O)cc1 (stereo not shown) [Structure 234] | – | Maximum Activity compared to TSH: 18.00; AC50 (read-out: AC50): 8.91 µM |
| COc1ccc(C2Nc3cccc(OC)c3C(=O)N2Cc2ccccc2)cc1COc1ccc(NC(C)=O)cc1 (stereo not shown) [Structure 235] | inactive | – |
| COc1ccc(CN(Cc2ccccc2)C(=O)COC(C)=O)cc1COc1ccc(NC(C)=O)cc1 [Structure 236] | – | Maximum Activity compared to TSH: 32.00; AC50 (read-out: AC50): 35.5 µM |
| COc1cccc(-c2nc(SC)nc3sc(C(=O)NC(C)(C)C)c(N)c23)c1 [Structure 239] | – | Maximum Activity compared to TSH: 30.00; AC50 (read-out: AC50): 17.8 µM |
| COc1ccc(CN(Cc2ccccc2)C(=O)c2ccno2)cc1COc1ccc(NC(C)=O)cc1 [Structure 248] | – | AC50 (read-out: AC50): 70.8 µM; Emax: 32% |
| COc1ccc(CN(Cc2ccccc2)C(=O)c2ccno2)cc1COc1ccc(NC(C)=O)cc1 [Structure 249] | – | Maximum Activity compared to TSH: 38.00; AC50 (read-out: AC50): 50.1 µM |
| COc1ccc(OCc2cc(C3Nc4ccccc4C(=O)N3Cc3ccccc3)ccc2OC)cc1 (stereo not shown) [Structure 256] | – | Maximum Activity compared to TSH: 24.00; AC50 (read-out: AC50): 5.01 µM |
| COc1ccc(C2Nc3ccccc3C(=O)N2CC(C)(C)C)cc1COc1ccc(NC(C)=O)cc1 (stereo not shown) [Structure 257] | – | AC50 (read-out: AC50): 20 µM; Emax: 20% |
| COc1ccc(C2Nc3ccccc3C(=O)N2C2CCCC2)cc1COc1ccc(NC(C)=O)cc1 (stereo not shown) [Structure 258] | – | Maximum Activity compared to TSH: 21.50; AC50 (read-out: AC50): 28.2 µM |
| COc1ccc(C2Nc3ccccc3C(=O)N2Cc2ccccc2C(F)(F)F)cc1COc1ccc(NC(C)=O)cc1 (stereo not shown) [Structure 265] | – | Maximum Activity compared to TSH: 24.00; AC50 (read-out: AC50): 6.31 µM |
| COc1ccc(C2N(Cc3ccccc3)C(=O)c3ccccc3N2C)cc1COc1ccc(NC(C)=O)cc1 (stereo not shown) [Structure 267] | – | Maximum Activity compared to TSH: 24.50; AC50 (read-out: AC50): 7.94 µM |
| COc1ccc(C2Nc3ccccc3C(=O)N2Cc2ccccn2)cc1COc1ccc(NC(C)=O)cc1 (stereo not shown) [Structure 269] | – | Maximum Activity compared to TSH: 28.00; AC50 (read-out: AC50): 25.1 µM |
| COc1ccc(C2Nc3ccccc3C(=O)N2Cc2ccccc2Cl)cc1COc1ccc(NC(C)=O)cc1 (stereo not shown) [Structure 273] | – | Maximum Activity compared to TSH: 11.00; AC50 (read-out: AC50): 2.51 µM |
| COc1ccc(C2Nc3cccc(OC)c3C(=O)N2Cc2ccccc2)cc1COc1ccc(NC(C)=O)cc1 (stereo not shown) [Structure 274] | – | Maximum Activity compared to TSH: 28.00; AC50 (read-out: AC50): 20 µM |
| CCC(=O)Nc1ccc(OCc2cc(C3Nc4ccccc4C(=O)N3Cc3ccccc3)ccc2OC)cc1 (stereo not shown) [Structure 275] | – | Maximum Activity compared to TSH: 23.50; AC50 (read-out: AC50): 7.94 µM |
| COc1ccc(C2Nc3ccccc3C(=O)N2CC(C)(C)C)cc1COc1ccc(NC(C)=O)cc1 (stereo not shown) [Structure 276] | – | Maximum Activity compared to TSH: 32.00; AC50 (read-out: AC50): 25.1 µM |
| COc1ccc(C2Nc3ccccc3C(=O)N2Cc2ccccc2OC)cc1COc1ccc(NC(C)=O)cc1 (stereo not shown) [Structure 279] | – | Maximum Activity compared to TSH: 20.50; AC50 (read-out: AC50): 4.47 µM |

Second part, led by results:

| AC50 | SMILES | other results |
| --- | --- | --- |
| inactive | COc1ccc(C2Nc3ccccc3C(=O)N2Cc2ccco2)cc1COc1ccc(N)cc1 (stereo not shown) [Structure 237] | – |
| inactive | COc1ccc(C2Nc3ccccc3C(=O)N2Cc2ccccc2)cc1COc1ccc(Cl)cc1 (stereo not shown) [Structure 238] | – |
| inactive | COc1cccc(-c2nc(SC)nc3sc(C(=O)NC(C)(C)C)c(N)c23)c1 [Structure 240] | – |
| inactive | COc1ccc(C2Nc3ccccc3C(=O)N2Cc2ccc(-c3ccccc3)cc2)cc1COc1ccc(NC(C)=O)cc1 (stereo not shown) [Structure 242] | – |
| inactive | COc1ccc(C2Nc3ccccc3C(=O)N2Cc2ccccc2)cc1Oc1ccc(NC(C)=O)cc1 (stereo not shown) [Structure 243] | – |
| inactive | O=C1CC(c2ccco2)CC2=C1C(c1ccncc1)n1nc(C(F)(F)F)nc1C2 (stereo not shown) [Structure 244] | – |
| inactive | COc1ccc(C2Nc3ccccc3C(=O)N2Cc2ccco2)cc1COc1ccc([N+](=O)[O-])cc1 (stereo not shown) [Structure 245] | – |
| inactive | COc1ccc(CN2C(=O)N(c3ccccc3)C(=O)C2c2ccccc2)cc1COc1ccc(NC(C)=O)cc1 (stereo not shown) [Structure 247] | – |
| inactive | COc1ccc(C2Nc3ccccc3C(=O)N2Cc2ccccc2)cc1COc1ccc(C#N)cc1 (stereo not shown) [Structure 250] | – |
| inactive | O=C1c2ccccc2NC(c2cc(Br)c3c(c2)OCO3)N1Cc1ccco1 (stereo not shown) [Structure 251] | – |
| inactive | COc1cc(C2Nc3ccccc3C(=O)N2Cc2ccccc2)ccc1OCc1ccc(NC(C)=O)cc1 (stereo not shown) [Structure 252] | – |
| inactive | O=C1c2ccccc2NC(c2ccccc2)N1Cc1ccco1 (stereo not shown) [Structure 254] | – |
| inactive | O=C1c2ccccc2NC(c2ccccc2)N1Cc1ccco1 (stereo not shown) [Structure 255] | – |
| inactive | COc1ccc(C2Nc3ccccc3C(=O)N2Cc2ccccc2)cc1COc1cccc(Cl)c1 (stereo not shown) [Structure 259] | – |
| inactive | COc1ccc(O)c(C2Nc3ccccc3C(=O)N2Cc2ccccc2)c1 (stereo not shown) [Structure 260] | – |
| inactive | COc1ccc(-c2nc3ccc(NC(=O)COC(C)=O)cc3c(=O)n2Cc2ccccc2)cc1COc1ccc(NC(C)=O)cc1 [Structure 261] | – |
| inactive | COc1ccc(C2Nc3ccccc3C(=O)N2Cc2ccccc2)cc1COc1ccc(NC(=O)c2ccccc2)cc1 (stereo not shown) [Structure 263] | – |
| inactive | COc1ccc(C2Nc3ccccc3C(=O)N2Cc2ccccc2)cc1COc1ccc(NC(=O)c2ccccc2)cc1 (stereo not shown) [Structure 264] | – |
| inactive | COc1ccc(C2Nc3ccccc3C(=O)N2Cc2ccco2)cc1COc1ccccc1 (stereo not shown) [Structure 266] | – |
| inactive | CC(C)c1ccc(C2C3=C(CC(c4ccco4)CC3=O)Nc3nc(C(F)(F)F)nn32)cc1 (stereo not shown) [Structure 268] | – |
| inactive | COc1ccc(C2Nc3ccccc3C(=O)N2Cc2ccccc2)cc1COc1ccc(C(N)=O)cc1 (stereo not shown) [Structure 270] | – |
| inactive | COc1ccc(CN(Cc2ccccc2)C(=O)c2ccccc2O)cc1 [Structure 271] | – |
| inactive | COc1ccc(C2Nc3ccccc3C(=O)N2Cc2ccccc2)cc1COc1ccc(F)cc1 (stereo not shown) [Structure 272] | – |
| inactive | O=C(c1ccccc1O)N(Cc1cccs1)Cc1cccs1 [Structure 277] | – |
| inactive | COc1ccc(C2Nc3ccccc3C(=O)N2Cc2ccccc2)cc1COc1cccc(Cl)c1 (stereo not shown) [Structure 278] | – |
